tested on: HCV genotype 1b replicon; assay: HCV replicon assay, cell ELISA with antibody to replicon-encoded NS3/4A (genotype 1b replicon); type: cell-based, hepatitis C virus; conditions: Hepatitis C virus, 96 h, read-out: 1b IC50(nM), HCV genotype 1b replicon; 96 hours incubation; NS3/4A cell ELISA
Protocol: The HCV NS5B inhibitory activity of the present compounds may be tested using assays known in the art. The HCV NS5B polymerase inhibitors described herein have activities in a genotype 1b replicon assay as described in the Examples. The assay is performed by incubating a replicon harboring cell-line in the presence of inhibitor for a set period of time and measuring the effect of the inhibitor on HCV replicon replication either directly by quantifying replicon RNA level, or indirectly by measuring enzymatic activity of a co-encoded reporter enzyme such as luciferase or β-lactamase. By performing a series of such measurements at different inhibitor concentrations, the effective inhibitory concentration of the inhibitor (EC50 or EC90) is determined. See Jan M. Vrolijk et al., A replicons-based bioassay for the measurement of interferons in patients with chronic hepatitis C, 110 J. VIROLOGICAL METHODS 201 (2003). Such assays may also be run in an automated format for high through-put screening. See Paul Zuck et al., A cell-based β-lactamase reporter gene assay for the identification of inhibitors of hepatitis C virus replication, 334 ANALYTICAL BIOCHEMISTRY 344 (2004).
Measurement of inhibition by compounds was performed using the HCV replicon system. Several different replicons encoding different HCV genotypes or mutations were used. In addition, potency measurements were made using different formats of the replicon assay, including different ways of measurements and different plating formats. See Jan M. Vrolijk et al., A replicons-based bioassay for the measurement of interferons in patients with chronic hepatitis C, 110 J. VIROLOGICAL METHODS 201 (2003); Steven S. Carroll et al., Inhibition of Hepatitis C Virus RNA Replication by 2′-Modified Nucleoside Analogs, 278(14) J. BIOLOGICAL CHEMISTRY 11979 (2003). However, the underlying principles are common to all of these determinations, and are outlined below.
Stable neomycin phosphotransferase encoding replicons-harboring cell lines were used, so all cell lines were maintained under G418 selection prior to the assay. Potency was determined using a cell ELISA assay with an antibody to the replicons encoded NS3/4a protease. See Caterina Trozzi et al., In Vitro Selection and Characterization of Hepatitis C Virus Serine Protease Variants Resistant to an Active-Site Peptide Inhibitor, 77(6) J. Virol. 3669 (2003). To initiate an assay, replicon cells were plated in the presence of a dilution series of test compound in the absence of G418. Typically, the assays were performed in a 96-well plate formate for manual operation, or a 384-well plate format for automated assay. Replicon cells and compound were incubated for 96 hours. At the end of the assay, cells were washed free of media and compound, and the cells were then lysed. RNA was quantified indirectly through detection of replicon-encoded NS3/4A protein levels, through an ELISA-based assay with an antibody specific for NS3/4A. IC50 determinations were calculated as a percentage of a DMSO control by fitting the data to a four-parameter fit function and the data obtained is provided in the table below.

SMILES	IC50 [nM]
CNC(=O)c1c(-c2ccc(F)cc2)oc2cc(N(CC(C)(CO)CF)S(C)(=O)=O)c(-c3ccc(OC)c(-c4nc5c(F)cccc5o4)c3)cc12 (centres unmarked) [Example 813]	107
CNC(=O)c1c(-c2ccc(F)cc2)oc2cc(N(C)S(C)(=O)=O)c(-c3cccc(-c4nc5c(o4)CCCC5(F)F)c3)cc12 [Example 515]	3.99
CNC(=O)c1c(-c2ccc(F)cc2)oc2cc(N(CCF)S(C)(=O)=O)c(-c3cc(F)cc(-c4nc5ncccc5o4)c3)cc12 [Example 873]	3.4
CNC(=O)c1c(-c2ccc(F)cc2)oc2cc(N(C)S(C)(=O)=O)c(-c3cc(OC)cc(-c4cc5cccnc5[nH]4)c3)cc12 [Example 861]	1.8
CNC(=O)c1c(-c2ccc(F)cc2)oc2cc(N(C)S(C)(=O)=O)c(-c3ccc(OC)c(-c4nc5ccc(-c6cccnc6)cc5o4)c3)cc12 [Example 659]	8.62
CNC(=O)c1c(-c2ccc(F)cc2)oc2cc(N(C)S(C)(=O)=O)c(-c3ccc(OC)c(-c4nc5cc(C(N)=O)ccc5o4)c3)cc12 [Example 632]	4.61
CNC(=O)c1c(-c2ccc(F)cc2)oc2cc(N(C)S(C)(=O)=O)c(-c3cc(-c4nc5cccc(F)c5o4)ccc3O)cc12 [Example 611]	11.1
CNC(=O)c1c(-c2ccc(F)cc2)oc2cc(N(C)S(C)(=O)=O)c(-c3cc(C#N)cc(-c4cc5ccccc5[nH]4)c3)cc12 [Example 558]	5.81

same assay, conditions: Hepatitis C virus, 96 h, read-out: Replicon 1b IC50 (nM), HCV genotype 1b replicon cells, 96 hours incubation, NS3/4A ELISA readout

SMILES	IC50 [nM]
CNC(=O)c1c(-c2ccc(F)cc2)oc2cc(N(C)S(=O)(=O)c3ccccc3)c(-c3cccc(-c4nc5ncccc5o4)c3)cc12 [Example 400, 2-(4-fluorophenyl)-N-methyl-6-(N-methylphenylsulfonamido)-5(3-(oxazolo[4,5-b]pyridin-2-yl)phenyl)benzofuran-3-carboxamide]	303
CNC(=O)c1c(-c2ccc(F)cc2)oc2cc(N(C)S(C)(=O)=O)c(-c3cccc(-c4nc5ccc(=O)[nH]c5[nH]4)c3)cc12 [Example 328]	13.5
CNC(=O)c1c(-c2ccc(F)cc2)oc2cc(N(C)S(C)(=O)=O)c(-c3cccc(-c4nc5c(F)cccc5s4)c3)cc12 [Example 278]	3.2
CNC(=O)c1c(-c2ccc(F)cc2)oc2cc(N(C)S(C)(=O)=O)c(-c3cccc(-c4nc5cccc(F)c5s4)c3)cc12 [Example 279]	3.2
CCC(C)CN(c1cc2oc(-c3ccc(F)cc3)c(C(=O)NC)c2cc1-c1ccccc1)S(C)(=O)=O (centres unmarked) [Example 19, 2-(4-fluorophenyl)-N-methyl-6-[(2-methylbutyl) (methylsulfonyl)amino]-5-phenyl-1-benzofuran-3-carboxamide]	227
CNC(=O)c1c(-c2ccc(F)cc2)oc2cc(N(C)S(C)(=O)=O)c(-c3cc(F)c(OC)c(-c4nc5ccccc5o4)c3)cc12 [Example 181]	5.7
CNC(=O)c1c(-c2ccc(F)cc2)oc2cc(N(C(C)c3ccccc3)S(C)(=O)=O)c(-c3ccccc3)cc12 (centres unmarked) [Example 4, 2-(4-fluorophenyl)-N-methyl-6-[(methylsulfonyl) (1-phenylethyl)amino]-5-phenyl-1-benzofuran-3-carboxamide]	703
CNC(=O)c1c(-c2ccc(F)cc2)oc2cc(N(C)S(C)(=O)=O)c(-c3ccc(F)c(-c4nc5cnccc5o4)c3)cc12 [Example 213]	2.5
CNC(=O)c1c(-c2ccc(F)cc2)oc2cc(N(C)S(C)(=O)=O)c(-c3cc(OC)cc(-c4nc5c(C)ccnc5[nH]4)c3)cc12 [Example 316]	2.8
CNC(=O)c1c(-c2ccc(F)cc2)oc2cc(NCCN(C)c3ccccc3)c(-c3ccccc3)cc12 [Example 70, 2-(4-fluorophenyl)-N-methyl-6-({2-[methyl(phenyl)amino]ethyl}amino)-5-phenyl-1-benzofuran-3-carboxamide]	329
CNC(=O)c1c(-c2ccc(F)cc2)oc2cc(N(CC3CCC3)S(C)(=O)=O)c(-c3ccccc3)cc12 [Example 21, 6-[(cyclobutylmethyl) (methylsulfonyl)amino]-2-(4-fluorophenyl)-N-methyl-5-phenyl-1-benzofuran-3-carboxamide]	115
C=CCN(c1cc2oc(-c3ccc(F)cc3)c(C(=O)NC)c2cc1-c1ccccc1)S(C)(=O)=O [Example 35, 2-(4-fluorophenyl)-N-methyl-6-[(methylsulfonyl) (prop-2-en-1-yl)amino]-5-phenyl-1-benzofuran-3-carboxamide]	7
CNC(=O)c1c(-c2ccc(F)cc2)oc2cc(N(C)S(C)(=O)=O)c(-c3cccc(-c4nc5c(C)cccc5s4)c3)cc12 [Example 146, 2-(4-fluorophenyl)-N-methyl-5-[3-(4-methyl-1,3-benzothiazol-2-yl)phenyl]-6-[methyl (methylsulfonyl)amino]-1-benzofuran-3-carboxamide]	15
CNC(=O)c1c(-c2ccc(F)cc2)oc2cc(N(C)S(C)(=O)=O)c(-c3cccc(-c4nc5cncnc5[nH]4)c3O)cc12 [Example 346]	165
CNC(=O)c1c(-c2ccc(F)cc2)oc2cc(N(C)S(C)(=O)=O)c(-c3cccc(-c4cnc(-c5ccccc5)s4)c3)cc12 [Example 136, 2-(4-fluorophenyl)-N-methyl-6-[methyl (methylsulfonyl)amino]-5-[3-(2-phenyl-1,3-thiazol-5-yl)phenyl]-1-benzofuran-3-carboxamide]	16
CNC(=O)c1c(-c2ccc(F)cc2)oc2cc(N(C)S(C)(=O)=O)c(-c3cccc(-c4nc5cncnc5[nH]4)c3)cc12 [Example 341]	14.6
CNC(=O)c1c(-c2ccc(F)cc2)oc2cc(N(C)S(C)(=O)=O)c(-c3ccc(C(F)(F)F)cc3)cc12 [Example 108, 2-(4-fluorophenyl)-N-methyl-6-[methyl(methylsulfonyl)amino]-5-[4-(trifluoromethyl)phenyl]-1-benzofuran-3-carboxamide]	53
CNC(=O)c1c(-c2ccc(F)cc2)oc2cc(N(C)S(C)(=O)=O)c(-c3cccc(-c4[nH]c5ncccc5c4CO)c3)cc12 [Example 383, 2-(4-fluorophenyl)-5-(3-(3-(hydroxymethyl)-1H-pyrrolo[2,3-b]pyridin-2-yl)phenyl)-N-methyl-6-(N-methylmethylsulfonamido)benzofuran-3-carboxamide]	2.5
CNC(=O)c1c(-c2ccc(F)cc2)oc2cc(N(C)S(C)(=O)=O)c(-c3ccc(OC)c(-c4nc5cc(Cl)ccc5o4)c3)cc12 [Example 187]	2.6
CNC(=O)c1c(-c2ccc(F)cc2)oc2cc(N(C)S(C)(=O)=O)c(-c3cc(OC)cc(-c4nc5cncnc5[nH]4)c3)cc12 [Example 345]	2.1
CNC(=O)c1c(-c2ccc(F)cc2)oc2cc(N3C(=O)O[C@H](c4ccccc4)[C@@H]3C)c(-c3ccccc3)cc12 [Example 77, 2-(4-fluorophenyl)-N-methyl-6-[(4S,5R)-4-methyl-2-oxo-5-phenyl-1,3-oxazolidin-3-yl]-5-phenyl-1-benzofuran-3-carboxamide]	101
CNC(=O)c1c(-c2ccc(F)cc2)oc2cc(N(C)S(C)(=O)=O)c(-c3ccc(F)c(-c4nc5cccnc5o4)c3)cc12 [Example 221]	1.7
CNC(=O)c1c(-c2ccc(F)cc2)oc2cc(N(C)S(C)(=O)=O)c(-c3ccc(F)c(-c4nc5ccccc5s4)c3F)cc12 [Example 296]	64.1
C#CCN(c1cc2oc(-c3ccc(F)cc3)c(C(=O)NC)c2cc1-c1ccccc1)S(C)(=O)=O [Example 34, 2-(4-fluorophenyl)-N-methyl-6-[(methylsulfonyl) (prop-2-yn-1-yl)amino]-5-phenyl-1-benzofuran-3-carboxamide]	189
CONC(=O)c1c(-c2ccc(F)cc2)oc2cc(N(C)S(C)(=O)=O)c(-c3cccc(C#N)c3)cc12 [Example 94, 5-(3-cyanophenyl)-2-(4-fluorophenyl)-N-methoxy-6-[methyl (methylsulfonyl)amino]-1-benzofuran-3-carboxamide]	450
CNC(=O)c1c(-c2ccc(F)cc2)oc2cc(N(C)S(C)(=O)=O)c(-c3cccc(-c4nc5ccc(OS(C)(=O)=O)nc5[nH]4)c3)cc12 [Example 329]	4.9
CNC(=O)c1c(-c2ccc(F)cc2)oc2cc(N(CCO)S(C)(=O)=O)c(-c3cc(F)cc(-c4nc5ncccc5o4)c3)cc12 [Compound 386]	1.3

Reference: patent US20120328569A1, “INHIBITORS OF HEPATITIS C VIRUS NS5B POLYMERASE” (priority 2010, published 2012)
